Source: paper PMC6458995, “MAP4K4 Inhibition Promotes Survival of Human Stem Cell-Derived Cardiomyocytes and Reduces Infarct Size In Vivo” (Cell Stem Cell, 2019)

Tests used:
Test in all cases: Dundee kinase panel
Type in all cases: biochemical
Settings in all cases: for remaining activity at 1 µM: read-out: residual activity
IR = molecular target: T1, IR (Homo sapiens, UniProt P06213)
T1 construct: lines 1-140) and Reaction Biology
Procedure: (§1) Compounds were screened at 1 μM. For key hits, pIC50 values were then determined by HTRF as above. […] Stability in mouse and human liver microsomes was determined by Cyprotex.

RIPK2 = molecular target: T2, RIPK2 (Homo sapiens, UniProt O43353)
T2 construct: lines 1-140) and Reaction Biology
Procedure: as §1

TTBK2 = molecular target: T3, TTBK2 (Homo sapiens, UniProt Q6IQ55)
T3 construct: lines 1-140) and Reaction Biology
Procedure: as §1

p38g MAPK = molecular target: T4, p38g MAPK (Homo sapiens, UniProt P53778)
T4 construct: lines 1-140) and Reaction Biology
T4 sequence (P53778 1-367): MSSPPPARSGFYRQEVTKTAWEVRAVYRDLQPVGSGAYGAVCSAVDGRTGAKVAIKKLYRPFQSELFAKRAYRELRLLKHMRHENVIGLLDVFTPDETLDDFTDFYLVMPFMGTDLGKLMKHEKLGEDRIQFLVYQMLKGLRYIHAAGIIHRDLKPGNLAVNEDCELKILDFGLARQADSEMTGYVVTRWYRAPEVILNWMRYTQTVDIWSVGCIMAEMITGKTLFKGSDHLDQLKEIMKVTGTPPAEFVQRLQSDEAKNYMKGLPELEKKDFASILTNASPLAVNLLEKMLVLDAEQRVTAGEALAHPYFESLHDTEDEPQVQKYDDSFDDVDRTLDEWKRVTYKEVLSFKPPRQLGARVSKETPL
Procedure: as §1

ABL = molecular target: T5, ABL (Homo sapiens, UniProt P00519)
T5 construct: lines 1-140) and Reaction Biology
Procedure: as §1

MKK6 = molecular target: T6, MKK6 (Homo sapiens, UniProt P52564)
T6 construct: lines 1-140) and Reaction Biology
T6 sequence (P52564 1-334): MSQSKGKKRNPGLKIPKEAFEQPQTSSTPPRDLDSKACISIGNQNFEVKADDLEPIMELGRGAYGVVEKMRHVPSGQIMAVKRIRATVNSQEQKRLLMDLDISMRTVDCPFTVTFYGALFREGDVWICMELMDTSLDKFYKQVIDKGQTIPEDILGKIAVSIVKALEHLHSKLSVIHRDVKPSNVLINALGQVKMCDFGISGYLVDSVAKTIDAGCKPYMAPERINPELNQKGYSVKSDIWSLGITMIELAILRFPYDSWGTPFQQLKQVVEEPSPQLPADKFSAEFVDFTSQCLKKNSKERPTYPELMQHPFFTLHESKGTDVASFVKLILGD
Procedure: as §1

STK33 = molecular target: T7, STK33 (Homo sapiens, UniProt Q9BYT3)
T7 construct: lines 1-140) and Reaction Biology
Procedure: as §1

CHK1 = molecular target: T8, CHK1 (Homo sapiens, UniProt O14757)
T8 construct: lines 1-140) and Reaction Biology
T8 sequence (O14757 1-476): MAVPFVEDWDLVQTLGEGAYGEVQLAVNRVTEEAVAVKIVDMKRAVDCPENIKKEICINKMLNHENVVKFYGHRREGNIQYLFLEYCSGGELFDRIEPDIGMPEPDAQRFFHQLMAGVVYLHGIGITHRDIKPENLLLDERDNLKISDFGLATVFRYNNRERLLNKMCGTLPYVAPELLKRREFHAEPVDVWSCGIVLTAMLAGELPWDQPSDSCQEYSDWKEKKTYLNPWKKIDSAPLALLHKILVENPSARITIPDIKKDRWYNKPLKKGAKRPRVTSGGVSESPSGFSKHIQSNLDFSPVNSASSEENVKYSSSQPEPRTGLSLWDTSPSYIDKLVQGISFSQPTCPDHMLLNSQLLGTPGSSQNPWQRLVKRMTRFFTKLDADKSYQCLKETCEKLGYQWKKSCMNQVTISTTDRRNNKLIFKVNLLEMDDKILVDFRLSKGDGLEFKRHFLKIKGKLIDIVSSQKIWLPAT
Procedure: as §1

TBK1 = molecular target: T9, TBK1 (Homo sapiens, UniProt Q9UHD2)
T9 construct: lines 1-140) and Reaction Biology
T9 sequence (Q9UHD2 1-729): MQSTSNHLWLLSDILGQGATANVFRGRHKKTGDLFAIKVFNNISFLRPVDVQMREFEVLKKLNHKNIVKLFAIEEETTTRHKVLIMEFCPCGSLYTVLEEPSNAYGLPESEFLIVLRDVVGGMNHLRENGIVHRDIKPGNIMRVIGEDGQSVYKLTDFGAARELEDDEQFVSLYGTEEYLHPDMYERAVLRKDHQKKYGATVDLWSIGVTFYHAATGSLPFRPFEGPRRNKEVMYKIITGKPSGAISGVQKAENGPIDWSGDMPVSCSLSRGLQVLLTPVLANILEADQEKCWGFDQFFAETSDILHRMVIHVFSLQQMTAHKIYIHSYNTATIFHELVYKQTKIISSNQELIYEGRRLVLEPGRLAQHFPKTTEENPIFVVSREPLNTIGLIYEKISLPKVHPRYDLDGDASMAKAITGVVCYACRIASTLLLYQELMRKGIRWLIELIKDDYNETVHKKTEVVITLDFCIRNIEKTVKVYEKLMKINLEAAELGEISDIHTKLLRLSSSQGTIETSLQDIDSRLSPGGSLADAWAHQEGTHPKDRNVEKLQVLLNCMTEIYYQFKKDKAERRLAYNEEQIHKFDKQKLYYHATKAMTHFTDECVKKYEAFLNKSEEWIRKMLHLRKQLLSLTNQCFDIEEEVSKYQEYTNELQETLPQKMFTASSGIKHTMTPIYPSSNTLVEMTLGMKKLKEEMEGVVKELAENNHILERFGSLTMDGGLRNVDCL
Procedure: as §1

CHK2 = molecular target: T10, CHK2 (Homo sapiens, UniProt O96017)
T10 construct: lines 1-140) and Reaction Biology
Procedure: as §1

MSK1 = molecular target: T11, MSK1 (Homo sapiens, UniProt O75582)
T11 construct: lines 1-140) and Reaction Biology
Procedure: as §1

PKCa = molecular target: T12, PKCa (Homo sapiens, UniProt P17252)
T12 construct: lines 1-140) and Reaction Biology
Procedure: as §1

MKK1 = molecular target: T13, MKK1 (Homo sapiens, UniProt Q02750)
T13 construct: lines 1-140) and Reaction Biology
Procedure: as §1

T13 sequence (Q02750 whole entry): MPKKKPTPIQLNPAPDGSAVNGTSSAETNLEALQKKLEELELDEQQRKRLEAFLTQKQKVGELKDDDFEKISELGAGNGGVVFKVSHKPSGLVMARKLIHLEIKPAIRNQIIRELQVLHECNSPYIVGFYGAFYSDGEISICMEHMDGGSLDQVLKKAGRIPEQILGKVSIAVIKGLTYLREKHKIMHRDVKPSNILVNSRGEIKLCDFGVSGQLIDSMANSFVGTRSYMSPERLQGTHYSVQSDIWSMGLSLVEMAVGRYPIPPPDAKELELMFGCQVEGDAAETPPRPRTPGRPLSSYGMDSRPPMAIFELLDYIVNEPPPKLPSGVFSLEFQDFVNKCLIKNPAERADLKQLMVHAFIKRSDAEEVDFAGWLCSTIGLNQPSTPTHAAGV
T2 sequence (O43353 whole entry): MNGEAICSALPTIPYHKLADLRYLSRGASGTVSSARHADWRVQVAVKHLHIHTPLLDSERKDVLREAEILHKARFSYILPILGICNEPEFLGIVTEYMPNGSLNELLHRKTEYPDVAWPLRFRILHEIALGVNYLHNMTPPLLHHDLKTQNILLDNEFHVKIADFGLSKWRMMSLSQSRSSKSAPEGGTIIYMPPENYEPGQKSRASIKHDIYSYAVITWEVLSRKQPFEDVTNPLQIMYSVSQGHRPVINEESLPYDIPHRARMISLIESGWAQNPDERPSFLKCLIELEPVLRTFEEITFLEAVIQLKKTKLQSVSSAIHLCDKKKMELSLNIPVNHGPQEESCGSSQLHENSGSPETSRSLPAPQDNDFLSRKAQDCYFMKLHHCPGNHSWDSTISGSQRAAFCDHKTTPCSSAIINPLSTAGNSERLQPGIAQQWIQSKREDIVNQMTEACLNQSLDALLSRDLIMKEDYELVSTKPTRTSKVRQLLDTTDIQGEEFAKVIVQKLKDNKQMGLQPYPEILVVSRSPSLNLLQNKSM
T11 sequence (O75582 whole entry): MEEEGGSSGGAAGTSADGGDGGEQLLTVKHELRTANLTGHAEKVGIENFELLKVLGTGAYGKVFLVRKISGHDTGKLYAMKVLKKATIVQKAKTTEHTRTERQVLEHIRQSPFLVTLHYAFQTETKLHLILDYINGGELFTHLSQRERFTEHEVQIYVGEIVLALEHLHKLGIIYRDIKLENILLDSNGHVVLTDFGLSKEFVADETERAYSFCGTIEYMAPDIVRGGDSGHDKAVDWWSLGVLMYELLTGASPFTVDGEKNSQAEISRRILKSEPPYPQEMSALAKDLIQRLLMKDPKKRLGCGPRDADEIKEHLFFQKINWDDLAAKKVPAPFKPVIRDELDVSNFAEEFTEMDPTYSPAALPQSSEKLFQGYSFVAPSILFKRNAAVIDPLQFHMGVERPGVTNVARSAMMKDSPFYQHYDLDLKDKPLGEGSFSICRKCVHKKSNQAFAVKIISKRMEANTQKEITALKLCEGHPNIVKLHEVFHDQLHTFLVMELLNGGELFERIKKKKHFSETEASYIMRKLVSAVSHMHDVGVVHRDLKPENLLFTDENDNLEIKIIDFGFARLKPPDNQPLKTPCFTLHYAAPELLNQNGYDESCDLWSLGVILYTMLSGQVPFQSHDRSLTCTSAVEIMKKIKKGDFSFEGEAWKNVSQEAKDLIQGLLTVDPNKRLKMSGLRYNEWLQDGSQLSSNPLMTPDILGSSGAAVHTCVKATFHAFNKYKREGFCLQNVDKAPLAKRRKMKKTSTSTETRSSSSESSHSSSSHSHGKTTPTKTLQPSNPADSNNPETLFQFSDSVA
T1 sequence (P06213 28-1382): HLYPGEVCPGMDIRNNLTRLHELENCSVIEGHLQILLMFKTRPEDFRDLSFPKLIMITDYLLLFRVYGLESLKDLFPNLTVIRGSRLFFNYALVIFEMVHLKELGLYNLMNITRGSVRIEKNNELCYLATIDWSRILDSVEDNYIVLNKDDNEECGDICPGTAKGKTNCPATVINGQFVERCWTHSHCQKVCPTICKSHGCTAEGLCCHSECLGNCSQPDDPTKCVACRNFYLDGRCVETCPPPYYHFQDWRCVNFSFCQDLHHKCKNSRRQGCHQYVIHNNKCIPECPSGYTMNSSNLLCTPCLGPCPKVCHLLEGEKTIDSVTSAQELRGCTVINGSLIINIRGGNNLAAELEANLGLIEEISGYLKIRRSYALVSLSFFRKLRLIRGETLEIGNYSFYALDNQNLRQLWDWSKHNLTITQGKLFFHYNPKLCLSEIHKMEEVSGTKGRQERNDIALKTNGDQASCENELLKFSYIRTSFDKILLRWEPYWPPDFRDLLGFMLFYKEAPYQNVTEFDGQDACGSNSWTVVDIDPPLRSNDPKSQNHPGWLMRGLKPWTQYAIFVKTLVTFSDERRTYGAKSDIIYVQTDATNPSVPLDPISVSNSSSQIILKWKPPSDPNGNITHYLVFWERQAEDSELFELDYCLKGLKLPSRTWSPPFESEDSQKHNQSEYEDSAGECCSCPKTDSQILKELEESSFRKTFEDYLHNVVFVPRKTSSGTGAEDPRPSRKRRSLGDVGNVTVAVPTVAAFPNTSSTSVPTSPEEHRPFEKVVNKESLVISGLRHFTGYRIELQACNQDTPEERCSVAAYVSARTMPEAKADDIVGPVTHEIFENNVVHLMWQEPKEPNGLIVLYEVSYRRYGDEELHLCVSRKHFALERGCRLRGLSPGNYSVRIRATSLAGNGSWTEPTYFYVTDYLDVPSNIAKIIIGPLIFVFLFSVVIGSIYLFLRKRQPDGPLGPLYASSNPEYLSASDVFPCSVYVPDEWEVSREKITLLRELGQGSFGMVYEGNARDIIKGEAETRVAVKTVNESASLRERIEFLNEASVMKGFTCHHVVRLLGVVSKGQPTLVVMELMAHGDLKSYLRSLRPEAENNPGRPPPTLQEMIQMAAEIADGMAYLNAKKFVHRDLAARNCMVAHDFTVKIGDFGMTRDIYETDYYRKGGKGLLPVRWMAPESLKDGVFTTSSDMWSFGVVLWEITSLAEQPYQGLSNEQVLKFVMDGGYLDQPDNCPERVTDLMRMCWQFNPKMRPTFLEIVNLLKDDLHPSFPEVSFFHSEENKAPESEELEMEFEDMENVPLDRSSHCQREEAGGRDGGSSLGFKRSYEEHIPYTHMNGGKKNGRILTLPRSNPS
T3 sequence (Q6IQ55 whole entry): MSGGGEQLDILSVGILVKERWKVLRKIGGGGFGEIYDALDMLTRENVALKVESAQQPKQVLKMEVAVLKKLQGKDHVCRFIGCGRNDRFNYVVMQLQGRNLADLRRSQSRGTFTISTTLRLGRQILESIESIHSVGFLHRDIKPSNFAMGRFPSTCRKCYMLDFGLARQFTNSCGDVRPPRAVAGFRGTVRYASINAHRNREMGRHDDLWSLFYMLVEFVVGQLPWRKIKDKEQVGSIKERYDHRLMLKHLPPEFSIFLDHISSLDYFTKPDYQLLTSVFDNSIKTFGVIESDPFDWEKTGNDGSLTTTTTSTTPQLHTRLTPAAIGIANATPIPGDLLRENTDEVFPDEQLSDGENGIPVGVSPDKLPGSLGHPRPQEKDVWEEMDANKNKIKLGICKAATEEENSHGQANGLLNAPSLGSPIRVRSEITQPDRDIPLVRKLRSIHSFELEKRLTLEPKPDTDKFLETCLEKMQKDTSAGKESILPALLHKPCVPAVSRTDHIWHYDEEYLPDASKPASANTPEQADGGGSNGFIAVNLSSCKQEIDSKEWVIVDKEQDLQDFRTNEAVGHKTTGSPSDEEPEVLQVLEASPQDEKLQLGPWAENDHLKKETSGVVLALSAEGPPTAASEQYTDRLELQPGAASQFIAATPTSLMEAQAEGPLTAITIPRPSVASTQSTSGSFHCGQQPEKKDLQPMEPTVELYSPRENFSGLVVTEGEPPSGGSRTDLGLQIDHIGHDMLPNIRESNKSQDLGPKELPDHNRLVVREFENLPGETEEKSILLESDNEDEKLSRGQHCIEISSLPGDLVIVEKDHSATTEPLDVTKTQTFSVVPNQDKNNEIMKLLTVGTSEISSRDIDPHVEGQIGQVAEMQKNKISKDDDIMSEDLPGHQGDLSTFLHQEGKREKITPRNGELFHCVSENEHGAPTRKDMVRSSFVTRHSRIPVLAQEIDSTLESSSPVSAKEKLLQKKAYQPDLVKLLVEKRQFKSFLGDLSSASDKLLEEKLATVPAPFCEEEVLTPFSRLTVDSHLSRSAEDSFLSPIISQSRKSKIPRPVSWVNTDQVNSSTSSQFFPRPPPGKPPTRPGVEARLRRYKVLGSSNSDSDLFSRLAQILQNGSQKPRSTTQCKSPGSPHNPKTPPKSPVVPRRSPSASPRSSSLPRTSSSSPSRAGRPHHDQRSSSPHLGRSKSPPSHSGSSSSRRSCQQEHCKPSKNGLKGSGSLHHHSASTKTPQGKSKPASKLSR

Compound | remaining activity at 1 µM (IR) [%] | remaining activity at 1 µM (RIPK2) [%] | remaining activity at 1 µM (TTBK2) [%] | remaining activity at 1 µM (p38g MAPK) [%] | remaining activity at 1 µM (ABL) [%] | remaining activity at 1 µM (MKK6) [%] | remaining activity at 1 µM (STK33) [%] | remaining activity at 1 µM (CHK1) [%] | remaining activity at 1 µM (TBK1) [%] | remaining activity at 1 µM (CHK2) [%] | remaining activity at 1 µM (MSK1) [%] | remaining activity at 1 µM (PKCa) [%] | remaining activity at 1 µM (MKK1) [%] | further results
COCCOc1ccc(-c2cn(-c3ccccc3)c3nc[nH]c(=O)c23)cc1 [DMX-5804, 5-[4-(2-methoxy-ethoxy)-phenyl]-7-phenyl-3,7-dihydro-pyrrolo[2,3-d]pyrimidin-4-one] | 115 | 89 | 108 | 117 | 79 | 112 | 97 | 86 | 48 | 69 | 121 | 116 | 113 | 
Oc1ncnc2c1c(-c1ccccc1)cn2-c1ccccc1 [F1386-0303, 5,7-diphenyl-7H-pyrrolo[2,3-d]pyrimidin-4-ol] | 118 | 105 | 99 | 109 | 94 | 105 | 99 | 98 | 97 | 100 | 102 | 70 | 101 | 
Nc1ncc(C(=O)NC2CN(C(=O)C3CC3)C2)c2ccc(-c3cccc(F)c3)nc12 [GNE-495] |  |  |  |  |  |  |  |  |  |  |  |  |  | residual activity (IR; 1 μM): 107%; residual activity (RIPK2; 1 μM): 11%; residual activity (TTBK2; 1 μM): 116%; residual activity (p38g MAPK; 1 μM): 93%; residual activity (ABL; 1 μM): 68%; residual activity (MKK6; 1 μM): 97%; residual activity (STK33; 1 μM): 94%; residual activity (CHK1; 1 μM): 93%; residual activity (TBK1; 1 μM): 104%; residual activity (CHK2; 1 μM): 102%; residual activity (MSK1; 1 μM): 69%; residual activity (PKCa; 1 μM): 50%; residual activity (MKK1; 1 μM): 56%
O=C1Nc2ccc(I)cc2/C1=C/c1cc(Br)c(O)c(Br)c1 [GW5074] | 26 | 51 | 83 | 114 | 58 | 81 | 71 | 33 | 83 | 46 | 74 | 85 | 80 | 
O=C1Cc2c([nH]c3ccc(Br)cc23)-c2ccccc2N1 [Kenpaullone] | 43 | 60 | 95 | 100 | 40 | 102 | 92 | 68 | 90 | 25 | 90 | 94 | 97 | 
